Experimental data from patent publication US11236122B2, “Triterpene amine derivatives” (DFH THERAPEUTICS, priority 2018, dated 2022).
Counter-ions that a name gives are not always drawn.

What was measured:
pNL4-3 SP1-V7A = test: CA-SP1 accumulation assay, SP1-V7A derivative; type: cell-based, HIV-1; settings: HeLa or 293T cells; for % CA-SP1 Accumulation 10 nM SP1 V7A: 10 nM compound
Outline: (§1)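 HeLa or 293T cells transfected with proviral clone, maturation inhibitors present through transfection and labeling; at 24 h, [^35S]Met/Cys labeling 2-3 h. Virions pelleted by ultracentrifugation, lysed, CA and CA-SP1 resolved by SDS-PAGE and quantified by phosphorimaging.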

WT pNL4-3 = test: CA-SP1 accumulation assay, WT NL4-3; type: cell-based, HIV-1; settings: HeLa or 293T cells; for % CA-SP1 Accumulation 10 nM NL4-3: 10 nM compound
Outline: as §1

[1] = system: panel of HIV-1 isolates in human PBMCs; test: PBMC antiviral assay against a panel of HIV-1 isolates (RT activity); type: cell-based
Experimental: Antiviral assays. To produce HIV-1 stocks, 293T cells were transfected with WT pNL4-3 or the SP1-V7A derivative and culture supernatants were collected 24 h post transfection. RT-normalized virus supernatants were used to infect MT-4 cells at room temperature for 30 min. Cells were then cultured in the presence of serial dilutions of compounds. At 4 d post-infection, the culture supernatants were subjected to RT assay to monitor viral replication. The 50% inhibitory concentrations (IC50s) were defined as compound concentrations that reduced RT levels to 50% those measured in the absence of inhibitor (DMSO only controls) using GraphPad Prism 6 software. The IC50s in primary peripheral blood mononuclear cells (PBMCs) were calculated with a multi-clade panel of HIV-1 isolates by Southern Research Institute (Frederick, Md.). The PBMCs were stimulated with phytohemagglutinin (PHA) and IL-2 prior to use in the antiviral assays.
Virus Isolates. Compound evaluation against a panel of HIV-1 isolates were performed by the Southern Research Institute (SRI). The viruses were chosen to include one isolate from each of the seven HIV-1 Group M envelope subtypes A, B, C, D, E, F, and G, as well as isolates from HIV-1 Groups O and N. In addition, various drug resistant HIV-1 isolates were included for evaluation. The HIV-1 isolates selected include CCR5-tropic and CXCR4-tropic isolates. Unless otherwise noted, all virus isolates were obtained from the NIH AIDS Research and Reference Reagent Program. Virus isolate 1022-48 was obtained from Dr. William A. Schief of Merck Research Laboratories. MDR769 and MDR807 were obtained from Dr. Thomas C. Merigan of Stanford University. A low passage stock of each virus was prepared using fresh human PBMCs and stored in liquid nitrogen. Pre-titered aliquots of each virus were removed from the freezer and thawed rapidly to rt in a biological safety cabinet immediately before use.
Human PBMC Preparation. Fresh human PBMCs were isolated from screened donors, seronegative for HIV and HBV (Biological Specialty Corporation, Colmar, Pa.). Cells were pelleted/washed 2-3 times by low speed centrifugation and resuspension in Dulbecco's phosphate buffered saline (PBS) to remove contaminating platelets. The leukophoresed blood was then diluted 1:1 with PBS and layered over 14 mL of Ficoll-Hypaque density gradient (Lymphocyte Separation Medium, Cell Grow #85-072-CL, density 1.078+/−0.002 g/mL) in a 50 mL centrifuge tube and then centrifuged for 30 min at 600×g. Banded PBMCs were gently aspirated from the resulting interface and subsequently washed twice with PBS by low speed centrifugation. After the final wash, cells were enumerated by trypan blue exclusion and re-suspended at 1×10^6 cells/mL in RPMI 1640 supplemented with 15% Fetal Bovine Serum (FBS), 2 mM L-glutamine, 100 U/mL penicillin, […] streptomycin, and 4 μg/mL Phytohemagglutinin (PHA; Sigma, St. Louis, Mo.; cat #L1668). The cells were allowed to incubate for 48-72 h at 37° C. After incubation, PBMCs were centrifuged and resuspended in RPMI 1640 with 15% FBS, L-glutamine, penicillin, streptomycin, non-essential amino acids (MEM/NEAA; Hyclone; cat #SH30238.01), and 20 U/mL recombinant human IL-2 (R&D Systems Inc., Minneapolis, Minn.; cat #202IL). PBMCs were maintained in this medium at a concentration of 1-2×10^6 cells/mL, with twice-weekly medium changes until they were used in the assay protocol. Monocytes-derived-macrophages were depleted from the culture as the result of adherence to the tissue culture flask.
PBMC Assay. For the standard PBMC assay, PHA stimulated cells from at least two normal donors were pooled (mixed together), diluted in fresh medium to a final concentration of 1×10^6 cells/mL, and plated in the interior wells of a 96 well round bottom microplate at 50 μL/well (5×10^4 cells/well) in a standard formate developed by the Infectious Disease Research Department of the SRI. […]

[2] = Human immunodeficiency virus 1, IIIB, PBMC, isolate A17 (IIIB)
[3] = Human immunodeficiency virus 1, NL43, PBMC, isolate NL4-3, PBMC
[4] = Human immunodeficiency virus 1, NL43, PBMC, isolate NL4-3 gp41(36G) N42T, N43K, PBMC
[5] = Human immunodeficiency virus 1, PBMC, isolate 92BR030, PBMC
[6] = Human immunodeficiency virus 1, PBMC, isolate 92RW009, PBMC
[7] = Human immunodeficiency virus 1, PBMC, isolate 92UG001, PBMC
[8] = Human immunodeficiency virus 1, PBMC, isolate 93BR020, PBMC
[9] = Human immunodeficiency virus 1, PBMC, isolate 93BR029, PBMC
[10] = Human immunodeficiency virus 1, PBMC, isolate 93IN101, PBMC
[11] = Human immunodeficiency virus 1, PBMC, isolate 99UGA07412MI, PBMC
[12] = Human immunodeficiency virus 1, PBMC, isolate 1022-48, PBMC
[13] = Human immunodeficiency virus 1, PBMC, isolate 1064-52, PBMC
[14] = Human immunodeficiency virus 1, PBMC, isolate 4736_4 (NL4-3), PBMC
[15] = Human immunodeficiency virus 1, PBMC, isolate BCF02, PBMC
[16] = Human immunodeficiency virus 1, PBMC, isolate CMU02, PBMC
[17] = Human immunodeficiency virus 1, PBMC, isolate JV1083, PBMC
[18] = Human immunodeficiency virus 1, PBMC, isolate MDR769, PBMC
[19] = Human immunodeficiency virus 1, PBMC, isolate YBF30, PBMC

Row | Compound | % CA-SP1 Accumulation 10 nM SP1 V7A (pNL4-3 SP1-V7A) | % CA-SP1 Accumulation 10 nM NL4-3 (WT pNL4-3) | IC50 [1, 2] | IC50 [1, 3] | IC50 [1, 4] | IC50 [1, 5] | IC50 [1, 6] | IC50 [1, 7] | IC50 [1, 8] | IC50 [1, 9] | IC50 [1, 10] | IC50 [1, 11] | IC50 [1, 12] | IC50 [1, 13] | IC50 [1, 14] | IC50 [1, 15] | IC50 [1, 16] | IC50 [1, 17] | IC50 [1, 18] | IC50 [1, 19] | also measured
1 | C=C(C)[C@@H]1CC[C@]2(CCNCCN3CCS(=O)(=O)CC3)CC[C@]3(C)[C@H](CC[C@@H]4[C@@]5(C)CC[C@H](OC(=O)CC(C)(C)C(=O)O)C(C)(C)[C@@H]5CC[C@]43C)[C@@H]12 [Compound 51ee, (3β)-17-[[[2-[2-(1,1-Dioxothiomorpholin-4-yl)]Ethyl]Amino]Ethyl]-28-norlup-20(29)-en-3-ol, 3-(1-Hydrogen 2,2-Dimethylbutanedioate)] | 35.1% | 73.5% | 1.4 nM | 0.8 nM | 1.3 nM | 455 nM | 20.7 nM | 0.4 nM | 1.8 nM | 0.9 nM | 2.7 nM | 2.2 nM | 1.1 nM | 0.5 nM | 1 nM | 1.7 nM | 110 nM | 126 nM | 1.4 nM | 8.4 nM | –
2 | C=C(C)[C@@H]1CC[C@]2(CCNCCN3CCN(S(C)(=O)=O)CC3)CC[C@]3(C)[C@H](CC[C@@H]4[C@@]5(C)CC[C@H](OC(=O)CC(C)(C)C(=O)O)C(C)(C)[C@@H]5CC[C@]43C)[C@@H]12 [Compound 51ff, (3β)-17-[2-[[2-[4-(Methylsulfonyl)piperazin-1-yl]ethyl]amino]ethyl]-28-norlup-20(29)-en-3-ol, 3-(1-Hydrogen 2,2-Dimethylbutanedioate)] | 31.1 (3) % | 72.7 (3) % | 1.8 nM | 0.8 nM | 1.4 nM | > 1000 nM | 39.4 nM | < 0.15 nM | 2.4 nM | 1.1 nM | 14.2 nM | 4.3 nM | 1.3 nM | 0.7 nM | 0.8 nM | 2.8 nM | 217 nM | 460 nM | 1.7 nM | 3.6 nM | –
3 | C=C(C)[C@@H]1CC[C@]2(CCNC3CCN(CCO)CC3)CC[C@]3(C)[C@H](CC[C@@H]4[C@@]5(C)CC[C@H](OC(=O)CC(C)(C)CC(=O)O)C(C)(C)[C@@H]5CC[C@]43C)[C@@H]12 [Compound 51f, (3β)-17-[2-[[1-(2-Hydroxyethyl)piperidin-4-yl]amino]ethyl]-28-norlup-20(29)-en-3-ol, 3-(Hydrogen 3,3-Dimethylpentanedioate), Bis(trifluoroacetate) Salt] | – | – | 8.2 nM | 4 nM | 5.6 nM | 100 nM | – | – | – | 5.1 nM | 89 nM | 8.2 nM | 18.9 nM | – | 3.3 nM | 4.6 nM | 316 nM | 477 nM | 5.9 nM | 14.8 nM | % CA-SP1 Accumulation 100 nM SP1 V7A (pNL4-3 SP1-V7A; 100 nM compound): 43.4 (3) %; % CA-SP1 Accumulation 100 nM NL4-3 (WT pNL4-3; 100 nM compound): 79.7 (3) %; IC50 ([1]; Human immunodeficiency virus 1, PBMC, isolate 92UG031, PBMC): > 1000 nM; IC50 ([1]; Human immunodeficiency virus 1, PBMC, isolate MDR807, PBMC): > 1000 nM
4 | C=C(C)[C@@H]1CC[C@]2(CCNCCN3CCN(Cc4ccccc4)CC3)CC[C@]3(C)[C@H](CC[C@@H]4[C@@]5(C)CC[C@H](OC(=O)CC(C)(C)C(=O)O)C(C)(C)[C@@H]5CC[C@]43C)[C@@H]12 [Compound 51hh, (3β)-17-[2-[[2-[4-(Phenylmethyl)piperazin-1-yl]ethyl]amino]ethyl]-28-norlup-20(29)-en-3-ol, 3-(1-Hydrogen 2,2-Dimethylbutanedioate)] | 42.1 (5) % | 66.4 (3) % | 6.1 nM | 1.4 nM | 3.8 nM | > 1000 nM | 10.4 nM | 1.2 nM | 3 nM | 4.1 nM | 5.6 nM | 8 nM | 3.2 nM | 1.7 nM | 1.4 nM | 3.8 nM | 11.1 nM | 17.1 nM | 4.4 nM | 132 nM | IC50 ([1]; isolate CMU02, PBMC): 7.1 nM
